Laboratory results: the supplement of paper PMC8882468

Legend:
Experiment in all cases: CTG-3D luminescence at 96 h relative to day-0 seeding control (ratio to day 0); higher = more growth / less cytotoxicity; PDxO 3D drug screen (set 2), 96 h, CTG-3D normalised to day-0 seeding control.
HCI-001 = test system: HCI-001 (organoid from a triple-negative breast cancer xenograft)
HCI-027 = test system: HCI-027 (organoid from a triple-negative breast cancer xenograft)
HCI-023 = test system: HCI-023 (organoid from a triple-negative breast cancer xenograft)
HCI-015 = test system: HCI-015 (organoid from a triple-negative breast cancer xenograft)
HCI-002 = test system: HCI-002 (organoid from a triple-negative breast cancer xenograft)

CC(C)n1nc(-c2ccc3oc(N)nc3c2)c2c(N)ncnc21 [sapanisertib]
CTG-3D luminescence at 96 h
Conditions | 12.5 pM | 0.00025 µM | 0.005 µM | 0.1 µM | 1 µM | 10 µM | 100 µM | 625 fM
HCI-001, days in culture: 365 | 2.81 | 2.2 | 2.02 | 1.47 | 0.787 | 0.663 | 0.424 | 1.97
HCI-001, days in culture: 397 | 1.78 | 1.58 | 1.37 | 0.91 | 0.823 | 0.77 | 0.471 | 1.56
HCI-001, days in culture: 401 | 1.48 | 1.97 | 1.53 | 0.815 | 0.544 | 0.657 | 0.396 | 1.63
HCI-002, days in culture: 127 | 2.42 | 2.94 | 2.62 | 1.76 | 0.875 | 0.742 | 0.27 | 3.04
HCI-002, days in culture: 155 | 5.75 | 5.31 | 5.49 | 2.38 | 1.32 | 0.875 | 0.163 | 4.67
HCI-002, days in culture: 168 | 3.37 | 3.2 | 3.78 | 1.61 | 0.882 | 0.787 | 0.155 | 4.04
HCI-015, days in culture: 333 | 1.82 | 1.45 | 1.21 | 0.567 | 0.461 | 0.114 | 0.0973 | 1.56
HCI-015, days in culture: 355 | 2.17 | 1.74 | 1.65 | 1.3 | 0.564 | 0.557 | 0.233 | 1.38
HCI-015, days in culture: 369 | 2.06 | 1.61 | 2.17 | 0.797 | 0.611 | 0.449 | 0.336 | 1.68
HCI-023, days in culture: 223 | 1.99 | 3.08 | 1.41 | 0.945 | 0.479 | 0.703 | 0.169 | 2.08
HCI-023, days in culture: 238 | 1.38 | 1.49 | 1.44 | 0.777 | 0.723 | 0.606 | 0.2 | 1.64
HCI-023, days in culture: 252 | 2.43 | 1.86 | 1.79 | 1.19 | 0.654 | 0.535 | 0.388 | 1.93
HCI-027, days in culture: 145 | 1.73 | 1.87 | 1.67 | 0.675 | 0.62 | 0.3 | 0.158 | 1.76
HCI-027, days in culture: 158 | 1.38 | 2.26 | 2.09 | 1.46 | 0.941 | 0.992 | 0.124 | 3.36
HCI-027, days in culture: 164 | 1.86 | 1.51 | 1.15 | 1.08 | 1.1 | 0.369 | 0.41 | 2.35
HCI-027, days in culture: 176 | 3.48 | 2.27 | 1.45 | 1.22 | 0.927 | 0.364 | 0.195 | 2.69
HCI-027, days in culture: 186 | 0.934 | 1.54 | 1.53 | 1.25 | 0.548 | 0.717 | 0.142 | 2.62

C[C@@H](Nc1cc(F)cc(F)c1)c1cc(C(=O)N(C)C)cc2c(=O)cc(N3CCOCC3)oc12 [AZD-8186]
CTG-3D luminescence at 96 h
Conditions | 12.5 pM | 0.00025 µM | 0.005 µM | 0.1 µM | 1 µM | 10 µM | 100 µM | 625 fM
HCI-001, days in culture: 365 | 2.63 | 2.2 | 2.38 | 2.83 | 1.84 | 1.13 | 1.08 | 1.53
HCI-001, days in culture: 397 | 1.79 | 2.6 | 2.23 | 2.14 | 1.81 | 1.69 | 0.737 | 1.6
HCI-001, days in culture: 401 | 1.64 | 1.69 | 1.59 | 1.76 | 1.28 | 1.24 | 0.924 | 1.69
HCI-002, days in culture: 127 | 2.49 | 2.9 | 3.08 | 3.46 | 2.69 | 2.62 | 1.37 | 2.78
HCI-002, days in culture: 155 | 4.16 | 4.76 | 5.31 | 5.43 | 4.16 | 3.89 | 1.67 | 4.15
HCI-002, days in culture: 168 | 3.35 | 3.58 | 4.3 | 3.62 | 3.22 | 2.87 | 0.73 | 4.14
HCI-015, days in culture: 333 | 2.09 | 1.46 | 1.76 | 1.33 | 1.37 | 0.684 | 0.452 | 1.77
HCI-015, days in culture: 355 | 1.76 | 3.09 | 1.3 | 1.46 | 1.12 | 2.35 | 0.668 | 1.57
HCI-015, days in culture: 369 | 2.35 | 1.7 | 1.96 | 1.84 | 2.18 | 1.24 | 1.01 | 1.96
HCI-023, days in culture: 223 | 1.94 | 2.6 | 1.75 | 1.98 | 1.44 | 1.93 | 1.14 | 1.74
HCI-023, days in culture: 238 | 1.54 | 1.51 | 1.31 | 1.41 | 1.7 | 1.3 | 1.05 | 1.54
HCI-023, days in culture: 252 | 2.12 | 1.88 | 1.63 | 1.81 | 1.91 | 2.09 | 1.5 | 1.99
HCI-027, days in culture: 145 | 1.31 | 2.65 | 1.81 | 1.94 | 0.882 | 1.12 | 0.387 | 1.74
HCI-027, days in culture: 158 | 0.987 | 2.74 | 2.32 | 1.39 | 1.24 | 1.87 | 0.581 | 4.36
HCI-027, days in culture: 164 | 1.52 | 0.955 | 2.29 | 2.94 | 1.28 | 1.36 | 0.618 | 1.46
HCI-027, days in culture: 176 | 2.9 | 2.55 | 1.1 | 1.9 | 1.15 | 0.842 | 0.201 | 1.89
HCI-027, days in culture: 186 | 1.9 | 2.1 | 2.54 | 1.7 | 0.519 | 1.46 | 0.286 | 2.6

CC(=O)c1c(C)c2cnc(Nc3ccc(N4CCNCC4)cn3)nc2n(C2CCCC2)c1=O [palbociclib]
CTG-3D luminescence at 96 h
Conditions | 12.5 pM | 0.00025 µM | 0.005 µM | 0.1 µM | 1 µM | 10 µM | 100 µM | 625 fM
HCI-001, days in culture: 365 | 2.73 | 2.25 | 2.7 | 2.64 | 2.4 | 1.89 | 1.62 | 2.11
HCI-001, days in culture: 397 | 1.74 | 2.12 | 2.31 | 2.47 | 2.46 | 2 | 1.24 | 1.26
HCI-001, days in culture: 401 | 1.54 | 2.13 | 1.58 | 1.85 | 1.33 | 1.58 | 0.962 | 1.63
HCI-002, days in culture: 127 | 2.7 | 3.03 | 2.72 | 3.1 | 2.26 | 2.38 | 2.33 | 2.77
HCI-002, days in culture: 155 | 4.87 | 4.92 | 5.53 | 4.73 | 3.5 | 3.42 | 2.36 | 5.36
HCI-002, days in culture: 168 | 3.15 | 3.17 | 3.77 | 2.95 | 3.02 | 2.23 | 1.63 | 4.09
HCI-015, days in culture: 333 | 1.88 | 1.26 | 1.44 | 0.877 | 0.941 | 0.44 | 0.369 | 1.89
HCI-015, days in culture: 355 | 3.11 | 2.44 | 1.74 | 3.47 | 0.976 | 1.99 | 0.775 | 1.74
HCI-015, days in culture: 369 | 2.19 | 1.75 | 2.45 | 1.9 | 1.82 | 1.07 | 0.742 | 1.94
HCI-023, days in culture: 223 | 2.23 | 2.46 | 1.71 | 1.94 | 1.21 | 1.61 | 1.04 | 1.86
HCI-023, days in culture: 238 | 1.53 | 1.27 | 1.67 | 1.48 | 1.87 | 1.53 | 0.908 | 1.59
HCI-023, days in culture: 252 | 2.28 | 1.93 | 1.66 | 1.79 | 1.79 | 1.92 | 1.35 | 1.91
HCI-027, days in culture: 145 | 1.41 | 2.02 | 1.64 | 1.26 | 1.55 | 0.841 | 0.458 | 1.58
HCI-027, days in culture: 158 | 1.35 | 1.77 | 2.1 | 1.52 | 0.941 | 0.942 | 0.608 | 3.32
HCI-027, days in culture: 164 | 2.57 | 1.87 | 1.48 | 1.63 | 1.33 | 1.31 | 0.892 | 2.8
HCI-027, days in culture: 176 | 3.61 | 2.85 | 1.73 | 2.1 | 1.82 | 0.641 | 0.373 | 2.61
HCI-027, days in culture: 186 | 1.11 | 1.93 | 2.5 | 2.42 | 0.412 | 1.4 | 0.411 | 1.67

Cc1c(CN2CCN(C(=O)[C@H](C)O)CC2)sc2c(N3CCOCC3)nc(-c3cnc(N)nc3)nc12 [apitolisib]
CTG-3D luminescence at 96 h
Conditions | 12.5 pM | 0.00025 µM | 0.005 µM | 0.1 µM | 1 µM | 10 µM | 100 µM | 625 fM
HCI-001, days in culture: 365 | 2.58 | 2.24 | 2.1 | 1.76 | 0.879 | 0.659 | 0.623 | 1.4
HCI-001, days in culture: 397 | 1.85 | 1.88 | 1.62 | 1.89 | 0.725 | 0.643 | 0.29 | 1.38
HCI-001, days in culture: 401 | 1.46 | 1.75 | 1.41 | 1.57 | 0.609 | 0.676 | 0.517 | 1.65
HCI-002, days in culture: 127 | 2.45 | 2.82 | 2.96 | 2.58 | 1.05 | 0.803 | 0.805 | 2.74
HCI-002, days in culture: 155 | 5.36 | 5.25 | 5.97 | 4.01 | 1.36 | 0.808 | 0.848 | 4.72
HCI-002, days in culture: 168 | 3.42 | 3.42 | 4.23 | 2.67 | 1.16 | 0.818 | 0.75 | 3.69
HCI-015, days in culture: 333 | 2.19 | 1.99 | 1.89 | 1.33 | 0.434 | 0.445 | 0.394 | 1.94
HCI-015, days in culture: 355 | 2.9 | 4.1 | 1.01 | 2.04 | 0.803 | 0.711 | 0.182 | 1.38
HCI-015, days in culture: 369 | 2.06 | 1.76 | 2.05 | 1.61 | 0.917 | 0.622 | 0.691 | 1.69
HCI-023, days in culture: 223 | 2.19 | 2.65 | 1.81 | 1.85 | 0.861 | 0.971 | 0.469 | 2.04
HCI-023, days in culture: 238 | 1.77 | 1.62 | 1.45 | 1.58 | 1.5 | 0.763 | 0.38 | 1.65
HCI-023, days in culture: 252 | 1.95 | 1.92 | 1.7 | 2.06 | 1.62 | 0.654 | 0.459 | 1.97
HCI-027, days in culture: 145 | 1.36 | 2 | 1.85 | 1.14 | 0.404 | 0.297 | 0.262 | 1.64
HCI-027, days in culture: 158 | 2.21 | 2.37 | 2.99 | 2.07 | 0.609 | 1.12 | 0.342 | 6.72
HCI-027, days in culture: 164 | 1.35 | 2.18 | 2.6 | 1.92 | 0.894 | 0.441 | 0.389 | 1.48
HCI-027, days in culture: 176 | 3.68 | 2.63 | 1.06 | 1.66 | 0.9 | 0.431 | 0.271 | 1.29
HCI-027, days in culture: 186 | 1.37 | 1.93 | 1.13 | 0.973 | 0.319 | 0.706 | 0.112 | 2.34
